Results taken from US9133207B2, “Tetrandrine derivatives with substituted 5-carbon, preparation method and use thereof” (Hangzhou Bensheng Pharmaceutical Co., Ltd., priority 2011, dated 2015).
In brackets after ≈: the same amount, converted by molar mass.

Columns and labels:
[1] = test system: MGC 803 (human gastric cancer cell); assay: Solid tumor cell growth inhibition, MTT, 72 h (Example 7); format: cell-based; conditions: Homo sapiens
In short: (§1)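 MTT read-out of viable cells after 72 h compound treatment, reported as percent viability versus untreated control (100%). Cells seeded at 4000 per well, grown 24 h beforehand in 10% FBS DMEM high glucose, 37 °C, 5% CO2.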

[2] = test system: RKO (human colon adenocarcinoma cell); assay: as above; format: cell-based; conditions: for IC50 / IC90: Homo sapiens, 72 h, MTT, RKO; for anti-RKO activity increase over tetrandrine: compared with tetrandrine
In short: as §1

[3] = test system: CNE (nasopharyngeal carcinoma cell); assay: as above; format: cell-based; conditions: Homo sapiens
In short: as §1

[4] = test system: SK-OV-3 (ovarian cancer cell); assay: as above; format: cell-based; conditions: Homo sapiens
In short: as §1

[5] = test system: Hela (human cervical cancer cell); assay: as above; format: cell-based; conditions: for IC50 / IC90: Homo sapiens, 72 h, MTT, Hela
In short: as §1

A549 (human lung cancer) = assay: as above; format: cell-based; conditions: Homo sapiens; 72 h, MTT, A549
In short: as §1

[6] = test system: Becap37 (human breast cancer cell); assay: as above; format: cell-based; conditions: for IC50 / IC90: Homo sapiens, 72 h, MTT, Becap-37
In short: as §1

[7] = test system: Huh7 (human liver cancer cell); assay: as above; format: cell-based; conditions: Homo sapiens; 72 h, MTT, Huh-7
In short: as §1

[8] = test system: U87 MG (malignant glioma cell); assay: as above; format: cell-based; conditions: Homo sapiens, U-87 MG
In short: as §1

[9] = test system: RPMI8226 (multiple myeloma); assay: Multiple myeloma cell growth inhibition, MTT, 72 h (Example 6); format: cell-based, human; conditions: Homo sapiens, RPMI-8226; 72 h, MTT, RPMI8226
In short: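 Viability was read by MTT after 72 h of compound exposure at 37 °C, 5% CO2. Each well held 6000 RPMI8226 cells in 1640 medium containing 10% fetal bovine serum, with derivatives added at various concentrations.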

[10] = test system: Kasumi-1 (acute myeloid leukemia M2 type, AML-M2); assay: Leukemia cell growth inhibition, MTT, 72 h (Example 5); format: cell-based, human; conditions: Homo sapiens, Kasumi 1
In short: (§2)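 Viability read by MTT after 72 h of compound treatment at 37 °C under 5% CO2; each well seeded with 6000 cells in 1640 medium plus 10% fetal bovine serum, compounds at several concentrations.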

[11] = test system: K562/adr (drug-resistant, chronic myeloid leukemia, CML); assay: as above; format: cell-based, human; conditions: Homo sapiens, K562/Adr; 72 h, MTT
In short: as §2

[12] = test system: NB4 (acute promyelocytic leukemia, AML); assay: as above; format: cell-based, human; conditions: for IC50 / IC90: Homo sapiens, 72 h, MTT
In short: as §2

[13] = test system: Jurkat (acute lymphoblastic leukemia, ALL); assay: as above; format: cell-based, human; conditions: for IC50 / IC90: Homo sapiens, Jurkat, 72 h, MTT
In short: as §2

[14] = test system: H9 (acute lymphoblastic leukemia, ALL); assay: as above; format: cell-based, human; conditions: for IC50 / IC90: Homo sapiens, 72 h, MTT; for anti-H9 activity increase over tetrandrine: compared with tetrandrine
In short: as §2

[15] = test system: Hep-2 (laryngeal carcinoma); assay: Solid tumor cell growth inhibition, MTT, 72 h (Example 7); format: cell-based, human; conditions: for IC50 / IC90: Homo sapiens, 72 h, MTT, Hep 2
In short: as §1

PC-3 (prostate cancer) = assay: as above; format: cell-based, human; conditions: Homo sapiens; 72 h, MTT, PC-3
In short: as §1

[16] = test system: PANC-1 (pancreatic cancer); assay: as above; format: cell-based, human; conditions: Homo sapiens; 72 h, MTT, PANC-1
In short: as §1

MG63 (osteosarcoma) = assay: as above; format: cell-based, human; conditions: for IC50 / IC90: Homo sapiens, 72 h, MTT, MG-63
In short: as §1

[17] = test system: CaES-17 (esophageal cancer cell); assay: as above; format: cell-based, human; conditions: for IC50 / IC90: Homo sapiens, CaEs17, 72 h, MTT, CAES-17
In short: as §1

Compound: COc1ccc2cc1Oc1ccc(cc1)C[C@H]1c3cc(c(OC)cc3CCN1C)Oc1c(OC)c(OC)c(CN3CCN(C)CC3)c3c1[C@H](C2)N(C)CC3 [BS-TE-360]
- IC50 [1]: 0.8 µg/mL (≈ 1.09 µM)
- IC90 [1]: 5.17 µg/mL (≈ 7.03 µM)
- IC50 [2]: 0.12 µg/mL (≈ 0.163 µM)
- IC90 [2]: 1.02 µg/mL (≈ 1.39 µM)
- anti-RKO activity increase over tetrandrine [2]: 22 fold
- IC50 [3]: 0.64 µg/mL (≈ 0.871 µM)
- IC90 [3]: 3.55 µg/mL (≈ 4.83 µM)
- IC50 [4]: 1.62 µg/mL (≈ 2.2 µM)
- IC90 [4]: 3.22 µg/mL (≈ 4.38 µM)
- IC50 [5]: 1.2 µg/mL (≈ 1.63 µM)
- IC90 [5]: 6 µg/mL (≈ 8.16 µM)
- IC50 (A549 (human lung cancer)): 1.7 µg/mL (≈ 2.31 µM)
- IC90 (A549 (human lung cancer)): 9.2 µg/mL (≈ 12.5 µM)
- IC50 [6]: 1.2 µg/mL (≈ 1.63 µM)
- IC90 [6]: 3.7 µg/mL (≈ 5.03 µM)
- IC50 [7]: 0.93 µg/mL (≈ 1.27 µM)
- IC90 [7]: 2.4 µg/mL (≈ 3.27 µM)
- IC50 [8]: 0.33 µg/mL (≈ 0.449 µM)
- IC90 [8]: 1.55 µg/mL (≈ 2.11 µM)
- IC50 [9]: 0.05 µg/mL (≈ 0.068 µM)
- IC90 [9]: 1.5 µg/mL (≈ 2.04 µM)
- IC50 [10]: 0.41 µg/mL (≈ 0.558 µM)
- IC90 [10]: 2.28 µg/mL (≈ 3.1 µM)
- IC50 [11]: 0.33 µg/mL (≈ 0.449 µM)
- IC90 [11]: 2.4 µg/mL (≈ 3.27 µM)
- IC50 [12]: 0.5 µg/mL (≈ 0.68 µM)
- IC90 [12]: 1.4 µg/mL (≈ 1.9 µM)
- IC50 [13]: 0.5 µg/mL (≈ 0.68 µM)
- IC90 [13]: 4.5 µg/mL (≈ 6.12 µM)
- anti-Jurkat activity increase over tetrandrine ([13]; compared with tetrandrine): ~4 fold
- IC50 [14]: 0.22 µg/mL (≈ 0.299 µM)
- IC90 [14]: 1.71 µg/mL (≈ 2.33 µM)
- anti-H9 activity increase over tetrandrine [14]: ~12 fold
- IC50 [15]: 2.4 µg/mL (≈ 3.27 µM)
- IC90 [15]: 9.39 µg/mL (≈ 12.8 µM)
- IC50 (PC-3 (prostate cancer)): 1.85 µg/mL (≈ 2.52 µM)
- IC90 (PC-3 (prostate cancer)): 2.5 µg/mL (≈ 3.4 µM)
- IC50 [16]: 1.88 µg/mL (≈ 2.56 µM)
- IC90 [16]: 9.54 µg/mL (≈ 13 µM)
- IC50 (MG63 (osteosarcoma)): 0.8 µg/mL (≈ 1.09 µM)
- IC90 (MG63 (osteosarcoma)): 1.9 µg/mL (≈ 2.59 µM)
- IC50 [17]: 1.75 µg/mL (≈ 2.38 µM)
- IC90 [17]: 10.5 µg/mL (≈ 14.2 µM)

Compound: COc1ccc2cc1Oc1ccc(cc1)C[C@H]1c3cc(c(OC)cc3CCN1C)Oc1c(OC)c(OC)c(COCCOc3ccccc3)c3c1[C@H](C2)N(C)CC3 [BS-TE-402]
- IC50 [1]: 1.5 µg/mL (≈ 1.94 µM)
- IC90 [1]: 3.62 µg/mL (≈ 4.68 µM)
- IC50 [2]: 0.17 µg/mL (≈ 0.22 µM)
- IC90 [2]: 0.6 µg/mL (≈ 0.776 µM)
- anti-RKO activity increase over tetrandrine [2]: 16 fold
- IC50 [3]: 1.03 µg/mL (≈ 1.33 µM)
- IC90 [3]: 2.49 µg/mL (≈ 3.22 µM)
- IC50 [4]: 1.37 µg/mL (≈ 1.77 µM)
- IC90 [4]: 3.89 µg/mL (≈ 5.03 µM)
- IC50 [5]: 0.45 µg/mL (≈ 0.582 µM)
- IC90 [5]: 2.29 µg/mL (≈ 2.96 µM)
- anti-Hela activity increase over tetrandrine ([5]; compared with tetrandrine): 9 fold
- IC50 (A549 (human lung cancer)): 1.35 µg/mL (≈ 1.75 µM)
- IC90 (A549 (human lung cancer)): 4.79 µg/mL (≈ 6.2 µM)
- IC50 [6]: 0.52 µg/mL (≈ 0.673 µM)
- IC90 [6]: 2.15 µg/mL (≈ 2.78 µM)
- anti-Becap37 activity increase over tetrandrine ([6]; compared with tetrandrine): 13 fold
- IC50 [7]: 1.09 µg/mL (≈ 1.41 µM)
- IC90 [7]: 4.97 µg/mL (≈ 6.43 µM)
- IC50 [8]: 0.55 µg/mL (≈ 0.712 µM)
- IC90 [8]: 1.78 µg/mL (≈ 2.3 µM)
- IC50 [9]: 0.25 µg/mL (≈ 0.323 µM)
- IC90 [9]: 1.17 µg/mL (≈ 1.51 µM)
- IC50 [10]: 1.29 µg/mL (≈ 1.67 µM)
- IC90 [10]: 4.77 µg/mL (≈ 6.17 µM)
- IC50 [11]: 0.83 µg/mL (≈ 1.07 µM)
- IC90 [11]: 2.55 µg/mL (≈ 3.3 µM)
- IC50 [12]: 0.2 µg/mL (≈ 0.259 µM)
- IC90 [12]: 1.41 µg/mL (≈ 1.82 µM)
- anti-NB4 activity increase over tetrandrine ([12]; compared with tetrandrine): ~8 fold
- IC50 [13]: 2.34 µg/mL (≈ 3.03 µM)
- IC90 [13]: 5.6 µg/mL (≈ 7.25 µM)
- IC50 [14]: 0.25 µg/mL (≈ 0.323 µM)
- IC90 [14]: 1.25 µg/mL (≈ 1.62 µM)
- anti-H9 activity increase over tetrandrine [14]: ~12 fold
- IC50 [15]: 0.58 µg/mL (≈ 0.75 µM)
- IC90 [15]: 3.58 µg/mL (≈ 4.63 µM)
- anti-Hep-2 activity increase over tetrandrine ([15]; compared with tetrandrine): 7 fold
- IC50 (PC-3 (prostate cancer)): 2.05 µg/mL (≈ 2.65 µM)
- IC90 (PC-3 (prostate cancer)): 4.71 µg/mL (≈ 6.09 µM)
- IC50 [16]: 1.34 µg/mL (≈ 1.73 µM)
- IC90 [16]: 4.04 µg/mL (≈ 5.23 µM)
- IC50 (MG63 (osteosarcoma)): 0.07 µg/mL (≈ 0.0906 µM)
- IC90 (MG63 (osteosarcoma)): 1.11 µg/mL (≈ 1.44 µM)
- anti-MG63 activity increase over tetrandrine (MG63 (osteosarcoma); compared with tetrandrine): 27 fold
- IC50 [17]: 0.6 µg/mL (≈ 0.776 µM)
- IC90 [17]: 4.9 µg/mL (≈ 6.34 µM)
- anti-CaES-17 activity increase over tetrandrine ([17]; compared with tetrandrine): 14 fold
